From ChEMBL document CHEMBL1201862, “PubChem BioAssay data set” (2004)
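Step 1: Grow cells in 96-well plates. Step 2: Expose to compound for 48 hours at 5 concentrations. Step 3: Interpolate endpoints linearly; if unreached, use highest concentration. The concentration for 50% growth inhibition is given as GI50.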 The source made the active and inactive calls. Cut-off read from the data, not from the text of the source: active = GI50 up to about 1.1 µM and inactive = higher.

Tests used:
Assay in all cases: NCI anticancer screen, dose series, 48 h
SK-OV-3 = tested on: SK-OV-3
TK-10 = tested on: TK-10
RPMI-8226 = tested on: RPMI-8226
NCI/ADR-RES = tested on: NCI/ADR-RES
SK-MEL-28 = tested on: SK-MEL-28
SR = tested on: SR
CCRF-CEM = tested on: CCRF-CEM
NCI-H460 = tested on: NCI-H460
KM12 = tested on: KM12
MDA-MB-435 = tested on: MDA-MB-435
UO-31 = tested on: UO-31
PC-3 = tested on: PC-3
MOLT-4 = tested on: MOLT-4
Hs-578T = tested on: Hs-578T
SNB-75 = tested on: SNB-75
SK-MEL-5 = tested on: SK-MEL-5
SF-539 = tested on: SF-539
COLO 205 = tested on: COLO 205
SNB-19 = tested on: SNB-19
UACC-257 = tested on: UACC-257

| Structure (SMILES) | GI50 (SK-OV-3) | GI50 (TK-10) | GI50 (RPMI-8226) | GI50 (NCI/ADR-RES) | GI50 (SK-MEL-28) | GI50 (SR) | GI50 (CCRF-CEM) | GI50 (NCI-H460) | GI50 (KM12) | GI50 (MDA-MB-435) | GI50 (UO-31) | GI50 (PC-3) | GI50 (MOLT-4) | GI50 (Hs-578T) | GI50 (SNB-75) | GI50 (SK-MEL-5) | GI50 (SF-539) | GI50 (COLO 205) | GI50 (SNB-19) | GI50 (UACC-257) |
| --- | --- | --- | --- | --- | --- | --- | --- | --- | --- | --- | --- | --- | --- | --- | --- | --- | --- | --- | --- | --- |
| Oc1ccccc1-c1n[nH]c(-c2ccccc2O)n1 | 3.15 µM (inactive) | 3.27 µM (inactive) | 2.44 µM (inactive) | 2.45 µM (inactive) | > 100 µM (inactive) | 0.807 µM (active) | 1.47 µM (inactive) | 0.573 µM (active) | 1.49 µM (inactive) | > 100 µM (inactive) | 5.25 µM (inactive) | 2.24 µM (inactive) | 1.24 µM (inactive) | > 66.1 µM (inactive) | > 26.1 µM (inactive) | 3.04 µM (inactive) | 4.84 µM (inactive) | 4.25 µM (inactive) |  |  |
| C/C(=N/Nc1nc(C)cc(O)n1)C(=O)O | > 100 µM (inactive) | > 100 µM (inactive) | > 100 µM (inactive) | > 100 µM (inactive) | > 100 µM (inactive) | > 100 µM (inactive) | > 100 µM (inactive) | > 100 µM (inactive) | > 100 µM (inactive) | > 100 µM (inactive) | > 100 µM (inactive) | > 100 µM (inactive) | > 100 µM (inactive) | > 100 µM (inactive) | > 100 µM (inactive) | > 100 µM (inactive) |  | > 100 µM (inactive) | > 100 µM (inactive) | > 100 µM (inactive) |
| CC1(C)CC2(C)CC1CC2O (centres undefined) | > 100 µM (inactive) | > 100 µM (inactive) | > 100 µM (inactive) | > 100 µM (inactive) | > 100 µM (inactive) | > 100 µM (inactive) | > 100 µM (inactive) |  | > 100 µM (inactive) | > 100 µM (inactive) | > 100 µM (inactive) | > 100 µM (inactive) | > 100 µM (inactive) | > 100 µM (inactive) | > 100 µM (inactive) | > 100 µM (inactive) | > 100 µM (inactive) | > 100 µM (inactive) | > 100 µM (inactive) | > 100 µM (inactive) |
| C=O.NNCCc1n[nH]c(=O)n1N | > 100 µM (inactive) |  | > 100 µM (inactive) | > 100 µM (inactive) | > 100 µM (inactive) | > 100 µM (inactive) | > 100 µM (inactive) | > 100 µM (inactive) | > 100 µM (inactive) | > 100 µM (inactive) | > 100 µM (inactive) | > 100 µM (inactive) | > 100 µM (inactive) | > 100 µM (inactive) | 97.7 µM (inactive) | > 100 µM (inactive) | > 100 µM (inactive) | > 100 µM (inactive) | > 100 µM (inactive) | > 100 µM (inactive) |
| C/C=C/OC1C(C2COC(C)(C)O2)OC2OC(C)(C)OC21 (centres undefined) | > 100 µM (inactive) | > 100 µM (inactive) | > 100 µM (inactive) | > 100 µM (inactive) | > 100 µM (inactive) | > 100 µM (inactive) | > 100 µM (inactive) | > 100 µM (inactive) |  | > 100 µM (inactive) | > 100 µM (inactive) | > 100 µM (inactive) | > 100 µM (inactive) | > 100 µM (inactive) | > 100 µM (inactive) | > 100 µM (inactive) | > 100 µM (inactive) |  | > 100 µM (inactive) | > 100 µM (inactive) |
| COc1ccc2c(c1)CCc1c-2n(CCN(C)C)c2ccc(OC)cc12 | 25.9 µM (inactive) | 24.2 µM (inactive) | 4.92 µM (inactive) | 18.5 µM (inactive) | 9.48 µM (inactive) | 3.95 µM (inactive) | 2.38 µM (inactive) | 30.4 µM (inactive) | 7.53 µM (inactive) | 6.32 µM (inactive) | 14 µM (inactive) | 12.1 µM (inactive) | 10.2 µM (inactive) | 21.4 µM (inactive) | 21.2 µM (inactive) | 12.4 µM (inactive) |  | 4.38 µM (inactive) | 11.6 µM (inactive) | 33 µM (inactive) |
| CCCN(CCC)C(=S)N/N=C/c1cccc(C)n1 | 0.718 µM (active) | 0.142 µM (active) | 0.0239 µM (active) | < 0.01 µM (active) | 0.778 µM (active) | 0.0571 µM (active) | < 0.01 µM (active) | 0.159 µM (active) | 0.107 µM (active) | 0.521 µM (active) | 0.177 µM (active) | 0.0773 µM (active) | < 0.01 µM (active) | 2.16 µM (inactive) | 0.261 µM (active) | 0.129 µM (active) | 0.214 µM (active) | < 0.01 µM (active) | 0.533 µM (active) | < 0.01 µM (active) |
| CC(=O)c1ccc2c(c1)CC1(C2)Cc2cc3c(c(C(=O)O)c2C1)CCC3 (centres undefined) | > 100 µM (inactive) | > 100 µM (inactive) | 63.7 µM (inactive) | 80.5 µM (inactive) | > 100 µM (inactive) | 71.6 µM (inactive) | 81.8 µM (inactive) | 64.6 µM (inactive) | > 100 µM (inactive) | > 100 µM (inactive) | 40 µM (inactive) | > 100 µM (inactive) | > 100 µM (inactive) | 33 µM (inactive) | 61.5 µM (inactive) | 44.6 µM (inactive) | > 100 µM (inactive) | 53.1 µM (inactive) |  | > 100 µM (inactive) |
| CCOC(=O)Cn1c(=O)c2nc(SC)sc2n(CC)c1=S | > 100 µM (inactive) | > 100 µM (inactive) | > 100 µM (inactive) | > 100 µM (inactive) | > 100 µM (inactive) | > 100 µM (inactive) | > 100 µM (inactive) | > 100 µM (inactive) | > 100 µM (inactive) | 1.71 µM (inactive) | 14.2 µM (inactive) | > 100 µM (inactive) | > 100 µM (inactive) | 22.1 µM (inactive) | 9.38 µM (inactive) | > 100 µM (inactive) | > 100 µM (inactive) | > 100 µM (inactive) | > 100 µM (inactive) | > 100 µM (inactive) |
| CC1CC(C)C(O)C(C2CC(CC(=O)NC3CCCCC3)CC(=O)O2)C1 (centres undefined) |  | > 100 µM (inactive) | > 100 µM (inactive) | > 100 µM (inactive) | > 100 µM (inactive) | > 100 µM (inactive) | > 100 µM (inactive) | > 100 µM (inactive) | > 100 µM (inactive) | > 100 µM (inactive) |  | > 100 µM (inactive) | > 100 µM (inactive) | > 100 µM (inactive) | > 100 µM (inactive) | > 100 µM (inactive) | > 100 µM (inactive) | > 100 µM (inactive) | > 100 µM (inactive) | > 100 µM (inactive) |
| O=C(O)CNC(=O)c1ccc2cc(C(=O)N3CC(CCl)c4ccc([N+](=O)[O-])cc43)[nH]c2c1 (centres undefined) | > 100 µM (inactive) | > 100 µM (inactive) | > 100 µM (inactive) | > 100 µM (inactive) |  | > 100 µM (inactive) | > 100 µM (inactive) | > 100 µM (inactive) | > 100 µM (inactive) | > 100 µM (inactive) | > 100 µM (inactive) | > 100 µM (inactive) | > 100 µM (inactive) | > 100 µM (inactive) | > 100 µM (inactive) | > 100 µM (inactive) | > 100 µM (inactive) | > 100 µM (inactive) | > 100 µM (inactive) | > 100 µM (inactive) |
| CC(=C(C(N)=O)C(N)=O)C1C=C(c2cccs2)CC(c2ccc(Cl)cc2)=C1O (centres undefined) | > 100 µM (inactive) | 45.3 µM (inactive) | 20.4 µM (inactive) | 44.9 µM (inactive) | > 100 µM (inactive) | 31 µM (inactive) | 26.2 µM (inactive) | 69 µM (inactive) | 34.7 µM (inactive) | 42.2 µM (inactive) | 16.4 µM (inactive) | 9.55 µM (inactive) | 21.9 µM (inactive) | > 100 µM (inactive) | 90.6 µM (inactive) | 20.3 µM (inactive) |  | 42 µM (inactive) | 77.8 µM (inactive) | 14.5 µM (inactive) |
| CC(C)(C)OC(=O)N1C(C2=COc3ccccc3O2)=COc2cccnc21 | 1.81 µM (inactive) | 2.75 µM (inactive) | 1.55 µM (inactive) | 2 µM (inactive) | 1.74 µM (inactive) | 2.18 µM (inactive) |  | 1.74 µM (inactive) | 1.78 µM (inactive) | 1.74 µM (inactive) | 1.64 µM (inactive) | 1.96 µM (inactive) | 2.06 µM (inactive) | 3.64 µM (inactive) | 15.7 µM (inactive) | 1.75 µM (inactive) | 2 µM (inactive) | 1.9 µM (inactive) | 2.04 µM (inactive) | 1.75 µM (inactive) |
| CC1(C)C(OC(=O)c2ccccc2)C[C@]23CCC[C@](C)(C[C@@H](O)C12)C3 (some centres undefined) | 85.7 µM (inactive) | 29.5 µM (inactive) | 23.9 µM (inactive) | 14.5 µM (inactive) | 15.8 µM (inactive) | 9.91 µM (inactive) | 11.7 µM (inactive) | 16.2 µM (inactive) | 16.7 µM (inactive) | 18 µM (inactive) | 18.8 µM (inactive) | 11.5 µM (inactive) | 10.5 µM (inactive) | 19 µM (inactive) | 18.9 µM (inactive) | 13.1 µM (inactive) |  | 17.5 µM (inactive) | 23.6 µM (inactive) | 20.4 µM (inactive) |
| COc1cc(C)c2c(c1C=O)Oc1c(c(C)c(O)c3c1C(O)OC3=O)OC2=O (centres undefined) [STICTIC ACID] | 49.5 µM (inactive) | > 100 µM (inactive) | 16 µM (inactive) | 37.2 µM (inactive) | > 100 µM (inactive) | 16 µM (inactive) | > 10 µM (inactive) |  | 19.6 µM (inactive) | 50.5 µM (inactive) | 29.1 µM (inactive) | 34.4 µM (inactive) | 17.6 µM (inactive) | 36.8 µM (inactive) | 26.6 µM (inactive) | 20.2 µM (inactive) | 31.5 µM (inactive) | 28.3 µM (inactive) | 14.5 µM (inactive) | 47.9 µM (inactive) |
